The test system of the assay is 439559-082-T-J2-PDC spheroids viability. Put plainly: Anticancer human tumor 439559-082-T-J2-PDC patient-derived colon adenocarcinoma cell line growth inhibition [GQUAD]. The settings on record: for viability, T/C: stronger effect = lower value. An excerpt:
DNA G-quadruplex Stabilizer Agents in Combinations in Complex Spheroids
A high-throughput screen of multi-cell type tumor spheroids was designed to identify active combinations of DNA G-quadruplex stabilizer agents and targeted small molecules. Complex spheroids include a stromal component modeled by human endothelial cells (HUVEC) and fibroblasts modeled by human mesenchymal stem cells (MSCs). The concentration ranges selected for each drug and investigational agent were based upon clinically achievable concentrations if the clinical Cmax of the agent was known.
Compounds. The drugs and investigational agents: pidnarulex (CX-5461; NSC782164), APTO-253 (NSC789042), BRACO-19 (NSC847499), peposertib (NSC802822), ceralasertib (NSC780249), elimusertib (NSC800525), camonsertib (NSC841442), AZD-1390 (NSC803789), olaparib (NSC753686), talazoparib (NSC767125), ART-558 (NSC835418), sotorasib (NSC818433), MRTX-1133 (NSC836407), SN-38 (NSC673596), topotecan (NSC609699), etoposide (NSC141540), doxorubicin (NSC123127), gemcitabine (NSC613327), 5-fluorouracil (NSC19893), paclitaxel (NSC125973), vemurafenib (NSC761431), panobinostat (NSC761190), R-306465 (JNJ-16241199; NSC773264), adavosertib (NSC754352), TP-3654 (NSC805149), carboplatin (NSC241240), KSQ-4279 (NSC840948), and staurosporine (NSC755774) were obtained from the National Cancer Institute (NCI) Developmental Therapeutics Program Chemical Repository (34). The FDA-approved anticancer drug set is available from the NCI Developmental Therapeutics Program. […] The stock solutions were prepared in dimethyl sulfoxide (DMSO, Sigma-Aldrich, St. Louis, MO, cat. D2650) at 800-fold the tested concentration and stored at -70 degrees C prior to their use. All drugs and investigational agents were tested over a range starting from a high concentration at or near the clinical Cmax and decreasing in half-log increments. If the clinical Cmax for an agent had not been determined, the highest concentration tested was 10 microM.
2.3 Cell Culture. All cells were maintained in an incubator at 37 degrees C and 5% CO2 with 95% humidity. The PDC lines were cultured according to standard operating procedures established by the NCI PDMR. All PDCs were thawed and cultured in Matrigel-coated flasks prepared with a working solution of 1X Ham's F-12 nutrient mix, without supplementation (Invitrogen, cat. 11765054), 100 U/mL penicillin-streptomycin (Invitrogen, cat. 15140122), and 2.5% Matrigel (Corning Inc., cat. 354248) for the first three passages. The 857933-349-R-J2-PDC line was cultured in 6C/Colon 1B media, which includes advanced DMEM/F-12 (Thermo Fisher Scientific, cat. 12634028), 10 mM HEPES (Thermo Fisher Scientific, cat. 15630080), 1X GlutaMAX supplement (Thermo Fisher Scientific, cat. 35050061), 0.1 mg/mL primocin (InvivoGen, cat. ant-pm-2), 10% defined fetal bovine serum, heat inactivated (HyClone Laboratories Inc., cat. SH30070.03HI), 50% L-WRN conditioned media (ATCC, cat. CRL-3276), 1.25 mM N-Acetyl-L-cysteine (Sigma-Aldrich, cat. A9165), 10 mM nicotinamide (Sigma-Aldrich, cat. N0636), 1X B-27 supplement (Thermo Fisher Scientific, cat. 17504044), 1X N-2 supplement (Thermo Fisher Scientific, cat. 17502048), 10 microM Y-27632 dihydrochloride (Tocris Bioscience, cat. 1254), and 50 ng/mL human EGF recombinant protein (Thermo Fisher Scientific, cat. PHG0311). The 485176-168-R4-J1-PDC line was cultured in Panc media, which includes all 6C/Colon 1B media components plus 100 ng/mL human FGF-10 (Thermo Fisher Scientific, cat. 100-26), 500 nM SB-431542 (Selleckchem, cat. S1067), and gastrin (Tocris, cat. 3006).
[…]

[1] abbreviates: compound alone, run of 04/16/2024.

pIC50: −log10 of the molar value. Values joined by “and” are separate entries in the source; they are usually repeats but may differ in a detail not shown here. Equal entries are not always repeated.

Usually viability, T/C stands for the ratio of treated to control. What is called pIC50 is the IC50 on a negative log10 scale, so that one unit is a factor of ten.
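Also: spheroids exposed to the agents for 7 days before readout.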
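For viability, T/C in this document: percent of luminescence signal in DMSO vehicle wells taken as 100% viability.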

Regarding `COc1ccc([C@@H](O)c2cc(-c3ncnc4cc(N5CCOCC5)ccc34)c(F)cc2Cl)nn1`, the viability, T/C (compound 0.0316 µM) was 101% and 95.3% and 86.2%; the viability, T/C (compound 0.1 µM) was 85.9% and 92.8% and 85%; the viability, T/C (compound 0.316 µM) is 94.8% and 100% and 84.1%; the viability, T/C (compound 1 µM) was 98.8% and 88.3% and 102%; the viability, T/C (compound 3.16 µM) is 86.5% and 77.7% and 79.9%; the viability, T/C (compound 10 µM) was 91.6% and 78% and 75.7%. Besides, the pIC50 (curve of compound) was less than 5.00.
In the case of `COc1cccc2c1C(=O)c1c(O)c3c(c(O)c1C2=O)CC(O)(C(=O)CO)CC3OC1CC(N)C(O)C(C)O1` (stereo unspecified), the viability, T/C is 95.9% and 97.8% and 102% (compound 0.0316 µM); 95.7% and 105% and 90.6% (compound 0.1 µM); 88.5% and 84.1% and 81.5% (compound 0.316 µM); 78.7% and 80.2% and 79.4% (compound 1 µM); 61.8% and 57.9% and 63.3% (compound 3.16 µM); 51.2% and 41.3% and 43.4% (compound 10 µM). In addition, where the note is “curve of compound”, the pIC50 was < 5.00 and 5.25 and 5.15.
Regarding `Cc1[nH]c2ccc(F)cc2c1-c1nc2c3cccnc3c3ncccc3c2[nH]1`, the viability, T/C runs as follows: (compound 0.0316 µM) 103% [middle of 12 runs]; (compound 0.1 µM) 102% [middle of 12 runs]; (compound 0.316 µM) 100% [middle of 12 runs]; (compound 1 µM) 94.9% [middle of 12 runs]; (compound 3.16 µM) 86.4% [middle of 12 runs]; (compound 10 µM) 89.3% [middle of 12 runs]. In addition, the pIC50 is less than 5.00 under setting [1] and less than 5.00 (compound alone, run of 04/22/2024).
On to `Cc1[nH]c2ccccc2c1CCNCc1ccc(/C=C/C(=O)NO)cc1`, for which the viability, T/C is, setting by setting: (compound 0.000999 µM) 105% and 91.6% and 99.8%; (compound 0.00316 µM) 94.6% and 105% and 93.3%; (compound 0.00999 µM) 91.2% and 92.3% and 95.4%; (compound 0.0316 µM) 112% and 84.7% and 91.9%; (compound 0.0999 µM) 110% and 81.7% and 79%; (compound 0.316 µM) 101% and 63.2% and 61.6%. The pIC50 (curve of compound) was less than 6.50.
Consider `Cc1cccc(N(C)C(=O)C2C(O)CCN2c2nc(C)cc(C(F)(F)F)c2C#N)c1` (stereo unspecified), for which the viability, T/C is 93.8% and 107% and 103% (compound 0.0316 µM); 105% and 93.7% and 99.7% (compound 0.1 µM); 106% and 102% and 85.8% (compound 0.316 µM); 109% and 97.2% and 108% (compound 1 µM); 116% and 104% and 109% (compound 3.16 µM); 88.7% and 92.6% and 98.5% (compound 10 µM). Where the note is “curve of compound”, the pIC50 was less than 5.00.
For the molecule `Cc1cnc(CNC(=O)c2c(=O)c3ccc(N4CCCN(C)CC4)nc3n3c2sc2ccccc23)cn1`, the viability, T/C (compound 0.0316 µM) is 98.7% [middle of 12 runs]; the viability, T/C (compound 0.1 µM) was 93% [middle of 12 runs]; the viability, T/C (compound 0.316 µM) is 88.6% [middle of 12 runs]; the viability, T/C (compound 1 µM) was 81.6% [middle of 12 runs]; the viability, T/C (compound 3.16 µM) is 75.7% [middle of 12 runs]; the viability, T/C (compound 10 µM) is 75.7% [middle of 12 runs]. Besides, under setting [1], the pIC50 was less than 5.00.
As to `Cn1ncnc1[C@H]1c2n[nH]c(=O)c3cc(F)cc(c23)N[C@@H]1c1ccc(F)cc1`, the viability, T/C is 92.5% and 104% and 94.8% (compound 0.000999 µM); 84.5% and 91.5% and 115% (compound 0.00316 µM); 84.5% and 99.1% and 95.4% (compound 0.00999 µM); 87.8% and 102% (2×) (compound 0.0316 µM); 94.9% and 96.3% and 91.8% (compound 0.0999 µM); 91.2% and 91.9% and 86.3% (compound 0.316 µM). Further, the pIC50 (curve of compound) is less than 6.50.
For the molecule `Nc1ccn(C2OC(CO)C(O)C2(F)F)c(=O)n1` (stereo unspecified), the viability, T/C is 83.6% and 83.2% and 89.5% (compound 0.0316 µM); 74.3% and 67.4% and 60.4% (compound 0.1 µM); 53.7% and 46.2% and 49.7% (compound 0.316 µM); 38.5% and 30.7% and 32.6% (compound 1 µM); 28.2% and 25.8% and 28.4% (compound 3.16 µM); 22.9% and 26.9% and 23.2% (compound 10 µM). Moreover, under “curve of compound”, the pIC50 is 6.35 and 6.60 and 6.62.
As to `O=C(c1cc(Cc2n[nH]c(=O)c3ccccc23)ccc1F)N1CCN(C(=O)C2CC2)CC1`, the viability, T/C reads like this: (compound 0.0316 µM) 90.9% and 100% and 96.4%; (compound 0.1 µM) 103% and 97.7% and 97.9%; (compound 0.316 µM) 94.8% and 86.2% and 99.2%; (compound 1 µM) 98.9% and 98.6% and 98.4%; (compound 3.16 µM) 123% and 104% and 94.1%; (compound 10 µM) 91.1% and 89.6% and 94.1%. For the setting “curve of compound”, the pIC50 is less than 5.00.
As for `O=c1[nH]cc(F)c(=O)[nH]1`, the viability, T/C (compound 0.0316 µM) is 93.1% and 96.1% and 94.6%; the viability, T/C (compound 0.1 µM) was 103% and 102% and 97.4%; the viability, T/C (compound 0.316 µM) was 85.9% and 79.7% and 88.7%; the viability, T/C (compound 1 µM) was 76.7% and 78.2% and 78.6%; the viability, T/C (compound 3.16 µM) was 79.4% and 74.2% and 76.8%; the viability, T/C (compound 10 µM) was 71.5% and 77.1% and 70.3%. For the same molecule, for the setting “curve of compound”, the pIC50 is less than 5.00.

The values are drawn from PubChem BioAssay AID2060510 (Molecular Pharmacology Branch, DTP, NCI, 2025).
